Test results: patent US11040028B2, “Penicinotam derivative, preparation method and use thereof” (OCEAN UNIVERSITY OF CHINA, priority 2017, dated 2021)

Tested on: BHK-21 cells
Experiment: Anti-fibrosis activity test: inhibition of BHK-21 cell proliferation (CCK-8)
Format: cell-based
Conditions: Mesocricetus auratus, BHK-21, 48 h, CCK-8, 48 hours after administration
In short: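 Read-out: CCK-8 absorbance at 450 nm after 2 h, giving proliferation inhibition (1−Ai/Ao)×100% versus blank control, from which IC50 was derived. Cells had been treated with compounds for 48 h after 24 h adherence at 37° C. Pirfenidone served as positive control.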

Structure (SMILES)	IC50 [mM]
O=C1c2c(nc3ccccc3c2OCc2ccccc2C(F)(F)F)-c2cccn21 [Compound 581b, 9-((2-(trifluoromethyl)benzyl)oxy)-10H-pyrrolizino[1,2-b]quinolin-10-one]	0.05 to 5
O=C1c2c(n(Cc3cccc(Cl)c3F)c3ccccc3c2=O)-c2cccn21 [Compound 582a, 4-(3-Chloro-2-fluorobenzyl)-9H-pyrrolizino[1,2-b]quinoline-9,10(4H)-dione]	0.05 to 5
O=C1c2c(nc3cccc(Cl)c3c2OCc2cccc(Cl)c2)-c2cccn21 [Compound 478b, 8-chloro-9-((3-chlorobenzyl)oxy)-10H-pyrrolizino[1,2-b]quinolin-10-one]	0.05 to 5
O=C1c2c(n(Cc3ccc(I)cc3)c3ccccc3c2=O)-c2cccn21 [Compound 575a, 4-(4-Iodobenzyl)-9H-pyrrolizino[1,2-b]quinoline-9,10(4H)-dione]	< 0.05
O=C1c2c([nH]c3cc(F)ccc3c2=O)-c2cccn21 [Compound 488a, 6-Fluoro-9H-pyrrolizino[1,2-b]quinoline-9,10(4H)-dione]	0.05 to 5

Tested on: human lung fibroblasts HFL1
Experiment: Anti-fibrosis activity test: inhibition of proliferation of human lung fibroblasts HFL1 (CCK-8)
Format: cell-based
Conditions: Homo sapiens, HFL1, 48 h, human lung fibroblasts HFL1, CCK-8, 48 hours
In short: (§1)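 Exponentially growing cells, 2×10^4 cells/mL, attached 24 h. Dosed 48 h across concentrations (n=3). CCK-8 2 h → A450; IR vs blank; IC50.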

Structure (SMILES)	IC50 [mM]
O=C1c2c(nc3ccccc3c2OCc2ccccc2C(F)(F)F)-c2cccn21 [Compound 581b, 9-((2-(trifluoromethyl)benzyl)oxy)-10H-pyrrolizino[1,2-b]quinolin-10-one]	0.05 to 5
O=C1c2c(n(Cc3cccc(Cl)c3F)c3ccccc3c2=O)-c2cccn21 [Compound 582a, 4-(3-Chloro-2-fluorobenzyl)-9H-pyrrolizino[1,2-b]quinoline-9,10(4H)-dione]	0.05 to 5
O=C1c2c(nc3cccc(Cl)c3c2OCc2cccc(Cl)c2)-c2cccn21 [Compound 478b, 8-chloro-9-((3-chlorobenzyl)oxy)-10H-pyrrolizino[1,2-b]quinolin-10-one]	0.05 to 5
O=C1c2c(n(Cc3ccc(I)cc3)c3ccccc3c2=O)-c2cccn21 [Compound 575a, 4-(4-Iodobenzyl)-9H-pyrrolizino[1,2-b]quinoline-9,10(4H)-dione]	0.05 to 5
O=C1c2c([nH]c3cc(F)ccc3c2=O)-c2cccn21 [Compound 488a, 6-Fluoro-9H-pyrrolizino[1,2-b]quinoline-9,10(4H)-dione]	0.05 to 5

Tested on: human hepatic stellate cells LX-2
Experiment: Anti-fibrosis activity test: inhibition of proliferation of human hepatic stellate cells LX-2 (CCK-8)
Format: cell-based
Conditions: Homo sapiens, 48 h, human hepatic stellate cells LX-2, CCK-8, 48 hours
In short: as §1

Structure (SMILES)	IC50 [mM]
O=C1c2c(nc3ccccc3c2OCc2ccccc2C(F)(F)F)-c2cccn21 [Compound 581b, 9-((2-(trifluoromethyl)benzyl)oxy)-10H-pyrrolizino[1,2-b]quinolin-10-one]	0.05 to 5
O=C1c2c(n(Cc3cccc(Cl)c3F)c3ccccc3c2=O)-c2cccn21 [Compound 582a, 4-(3-Chloro-2-fluorobenzyl)-9H-pyrrolizino[1,2-b]quinoline-9,10(4H)-dione]	0.05 to 5
O=C1c2c(nc3cccc(Cl)c3c2OCc2cccc(Cl)c2)-c2cccn21 [Compound 478b, 8-chloro-9-((3-chlorobenzyl)oxy)-10H-pyrrolizino[1,2-b]quinolin-10-one]	0.05 to 5
O=C1c2c(n(Cc3ccc(I)cc3)c3ccccc3c2=O)-c2cccn21 [Compound 575a, 4-(4-Iodobenzyl)-9H-pyrrolizino[1,2-b]quinoline-9,10(4H)-dione]	0.05 to 5
O=C1c2c([nH]c3cc(F)ccc3c2=O)-c2cccn21 [Compound 488a, 6-Fluoro-9H-pyrrolizino[1,2-b]quinoline-9,10(4H)-dione]	< 0.05

Tested on: human fibrosarcoma cells HT-1080
Experiment: Anti-fibrosis activity test: inhibition of proliferation of human fibrosarcoma cells HT-1080 (CCK-8)
Format: cell-based
Conditions: Homo sapiens, HT-1080, 48 h, human fibrosarcoma cells HT-1080, CCK-8, 48 hours
In short: as §1

Structure (SMILES)	IC50 [mM]
O=C1c2c(nc3ccccc3c2OCc2ccccc2C(F)(F)F)-c2cccn21 [Compound 581b, 9-((2-(trifluoromethyl)benzyl)oxy)-10H-pyrrolizino[1,2-b]quinolin-10-one]	0.05 to 5
O=C1c2c(n(Cc3cccc(Cl)c3F)c3ccccc3c2=O)-c2cccn21 [Compound 582a, 4-(3-Chloro-2-fluorobenzyl)-9H-pyrrolizino[1,2-b]quinoline-9,10(4H)-dione]	0.05 to 5
O=C1c2c(nc3cccc(Cl)c3c2OCc2cccc(Cl)c2)-c2cccn21 [Compound 478b, 8-chloro-9-((3-chlorobenzyl)oxy)-10H-pyrrolizino[1,2-b]quinolin-10-one]	0.05 to 5
O=C1c2c(n(Cc3ccc(I)cc3)c3ccccc3c2=O)-c2cccn21 [Compound 575a, 4-(4-Iodobenzyl)-9H-pyrrolizino[1,2-b]quinoline-9,10(4H)-dione]	0.05 to 5
O=C1c2c([nH]c3cc(F)ccc3c2=O)-c2cccn21 [Compound 488a, 6-Fluoro-9H-pyrrolizino[1,2-b]quinoline-9,10(4H)-dione]	0.05 to 5

Tested on: human dermal fibroblasts CCC-ESF-1
Experiment: Anti-fibrosis activity test: inhibition of proliferation of human dermal fibroblasts CCC-ESF-1 (CCK-8)
Format: cell-based
Conditions: Fibroblast; human dermal fibroblasts CCC-ESF-1, CCK-8, 48 hours
In short: as §1

Structure (SMILES)	IC50 [mM]
O=C1c2c(nc3ccccc3c2OCc2ccccc2C(F)(F)F)-c2cccn21 [Compound 581b, 9-((2-(trifluoromethyl)benzyl)oxy)-10H-pyrrolizino[1,2-b]quinolin-10-one]	0.05 to 5
O=C1c2c(n(Cc3cccc(Cl)c3F)c3ccccc3c2=O)-c2cccn21 [Compound 582a, 4-(3-Chloro-2-fluorobenzyl)-9H-pyrrolizino[1,2-b]quinoline-9,10(4H)-dione]	0.05 to 5
O=C1c2c(nc3cccc(Cl)c3c2OCc2cccc(Cl)c2)-c2cccn21 [Compound 478b, 8-chloro-9-((3-chlorobenzyl)oxy)-10H-pyrrolizino[1,2-b]quinolin-10-one]	0.05 to 5
O=C1c2c(n(Cc3ccc(I)cc3)c3ccccc3c2=O)-c2cccn21 [Compound 575a, 4-(4-Iodobenzyl)-9H-pyrrolizino[1,2-b]quinoline-9,10(4H)-dione]	0.05 to 5
O=C1c2c([nH]c3cc(F)ccc3c2=O)-c2cccn21 [Compound 488a, 6-Fluoro-9H-pyrrolizino[1,2-b]quinoline-9,10(4H)-dione]	0.05 to 5

Tested on: human embryonic lung fibroblast IMR-90
Experiment: Anti-fibrosis activity test: inhibition of proliferation of human embryonic lung fibroblast IMR-90 (CCK-8)
Format: cell-based
Conditions: human embryonic lung fibroblast IMR-90, CCK-8, 48 hours
In short: as §1

Structure (SMILES)	IC50 [mM]
O=C1c2c(nc3ccccc3c2OCc2ccccc2C(F)(F)F)-c2cccn21 [Compound 581b, 9-((2-(trifluoromethyl)benzyl)oxy)-10H-pyrrolizino[1,2-b]quinolin-10-one]	0.05 to 5
O=C1c2c(n(Cc3cccc(Cl)c3F)c3ccccc3c2=O)-c2cccn21 [Compound 582a, 4-(3-Chloro-2-fluorobenzyl)-9H-pyrrolizino[1,2-b]quinoline-9,10(4H)-dione]	0.05 to 5
O=C1c2c(nc3cccc(Cl)c3c2OCc2cccc(Cl)c2)-c2cccn21 [Compound 478b, 8-chloro-9-((3-chlorobenzyl)oxy)-10H-pyrrolizino[1,2-b]quinolin-10-one]	0.05 to 5
O=C1c2c(n(Cc3ccc(I)cc3)c3ccccc3c2=O)-c2cccn21 [Compound 575a, 4-(4-Iodobenzyl)-9H-pyrrolizino[1,2-b]quinoline-9,10(4H)-dione]	0.05 to 5
O=C1c2c([nH]c3cc(F)ccc3c2=O)-c2cccn21 [Compound 488a, 6-Fluoro-9H-pyrrolizino[1,2-b]quinoline-9,10(4H)-dione]	0.05 to 5

Tested on: cardiac fibroblast RAT-iCell-C002
Experiment: Anti-fibrosis activity test: inhibition of proliferation of cardiac fibroblast RAT-iCell-C002 (CCK-8)
Format: cell-based
Conditions: Cardiac fibroblast, 48 h, cardiac fibroblast RAT-iCell-C002, CCK-8, 48 hours
In short: as §1

Structure (SMILES)	IC50 [mM]
O=C1c2c(nc3ccccc3c2OCc2ccccc2C(F)(F)F)-c2cccn21 [Compound 581b, 9-((2-(trifluoromethyl)benzyl)oxy)-10H-pyrrolizino[1,2-b]quinolin-10-one]	0.05 to 5
O=C1c2c(n(Cc3cccc(Cl)c3F)c3ccccc3c2=O)-c2cccn21 [Compound 582a, 4-(3-Chloro-2-fluorobenzyl)-9H-pyrrolizino[1,2-b]quinoline-9,10(4H)-dione]	0.05 to 5
O=C1c2c(nc3cccc(Cl)c3c2OCc2cccc(Cl)c2)-c2cccn21 [Compound 478b, 8-chloro-9-((3-chlorobenzyl)oxy)-10H-pyrrolizino[1,2-b]quinolin-10-one]	0.05 to 5
O=C1c2c(n(Cc3ccc(I)cc3)c3ccccc3c2=O)-c2cccn21 [Compound 575a, 4-(4-Iodobenzyl)-9H-pyrrolizino[1,2-b]quinoline-9,10(4H)-dione]	0.05 to 5
O=C1c2c([nH]c3cc(F)ccc3c2=O)-c2cccn21 [Compound 488a, 6-Fluoro-9H-pyrrolizino[1,2-b]quinoline-9,10(4H)-dione]	0.05 to 5

Tested on: NF-κB
Experiment: Immunological activity test: inhibition of NF-κB activity
Format: cell-based
Conditions: initial concentration of 30 μM; a/b isomers given as first/second symbol; read-out: IC50 (μM), inhibitory activity against NF-κB
In short: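 NF-κB inhibition was tested at an initial 30 μM compound concentration, with parthenolide as positive control, and IC50 values were determined from follow-up analysis.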

Structure (SMILES)	IC50 [µM]
O=C1c2c(nc3ccccc3c2OCc2ccccc2C(F)(F)F)-c2cccn21 [Compound 581b, 9-((2-(trifluoromethyl)benzyl)oxy)-10H-pyrrolizino[1,2-b]quinolin-10-one]	1 to 10
O=C1c2c(n(Cc3cccc(Cl)c3F)c3ccccc3c2=O)-c2cccn21 [Compound 582a, 4-(3-Chloro-2-fluorobenzyl)-9H-pyrrolizino[1,2-b]quinoline-9,10(4H)-dione]	1 to 10
O=C1c2c(nc3cccc(Cl)c3c2OCc2cccc(Cl)c2)-c2cccn21 [Compound 478b, 8-chloro-9-((3-chlorobenzyl)oxy)-10H-pyrrolizino[1,2-b]quinolin-10-one]	10 to 50
O=C1c2c(n(Cc3ccc(I)cc3)c3ccccc3c2=O)-c2cccn21 [Compound 575a, 4-(4-Iodobenzyl)-9H-pyrrolizino[1,2-b]quinoline-9,10(4H)-dione]	0.1 to 1
O=C1c2c([nH]c3cc(F)ccc3c2=O)-c2cccn21 [Compound 488a, 6-Fluoro-9H-pyrrolizino[1,2-b]quinoline-9,10(4H)-dione]	1 to 10

Tested on: mouse macrophages (RAW264.7)
Experiment: Lipopolysaccharide-induced NO secretion in macrophages (Griess)
Format: cell-based
Conditions: Mus musculus, RAW264.7, 24 h, RAW264.7, LPS 1 μg/ml, a/b isomers given as first/second symbol, read-out: IC50 (μM), inhibition of lipopolysaccharide-induced NO secretion in macrophages
In short: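 RAW264.7 cells in DMEM with 10% FBS were treated with test compounds at several concentrations, then stimulated with LPS (1 μg/ml) for 24 hours. Nitrite in the supernatant was measured by Griess reaction at 548 nm, and percent inhibition was calculated against blank-medium controls.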

Structure (SMILES)	IC50 [µM]
O=C1c2c(nc3ccccc3c2OCc2ccccc2C(F)(F)F)-c2cccn21 [Compound 581b, 9-((2-(trifluoromethyl)benzyl)oxy)-10H-pyrrolizino[1,2-b]quinolin-10-one]	1 to 10
O=C1c2c(n(Cc3cccc(Cl)c3F)c3ccccc3c2=O)-c2cccn21 [Compound 582a, 4-(3-Chloro-2-fluorobenzyl)-9H-pyrrolizino[1,2-b]quinoline-9,10(4H)-dione]	1 to 10
O=C1c2c(nc3cccc(Cl)c3c2OCc2cccc(Cl)c2)-c2cccn21 [Compound 478b, 8-chloro-9-((3-chlorobenzyl)oxy)-10H-pyrrolizino[1,2-b]quinolin-10-one]	1 to 10
O=C1c2c(n(Cc3ccc(I)cc3)c3ccccc3c2=O)-c2cccn21 [Compound 575a, 4-(4-Iodobenzyl)-9H-pyrrolizino[1,2-b]quinoline-9,10(4H)-dione]	1 to 10
O=C1c2c([nH]c3cc(F)ccc3c2=O)-c2cccn21 [Compound 488a, 6-Fluoro-9H-pyrrolizino[1,2-b]quinoline-9,10(4H)-dione]	10 to 50
